In patent US7355055B2, “Compounds for treatment of lipase-mediated diseases” (Reliance Life Sciences Pvt. Ltd., priority 2005, dated 2008):
Counter-ions that a name gives are not always drawn.

Key:
[1] = biological target: T1, Pancreatic Lipase (Sus scrofa, UniProt P00591); assay: Pancreatic lipase inhibition assay (p-nitro phenol palmitate substrate, 96-well); type: biochemical; settings: for IC50: dose range 6.25 μM-200 μM, interpolated by linear regression; for inhibition at 100 µM / inhibition at 200 µM: pancreatic lipase, 37° C., OD 405 nm; for inhibition at 100 µM: compound 100 μM; for inhibition at 200 µM: compound 200 μM
T1 construct: purchased Sigma L-3126
T1 sequence (P00591 1-450): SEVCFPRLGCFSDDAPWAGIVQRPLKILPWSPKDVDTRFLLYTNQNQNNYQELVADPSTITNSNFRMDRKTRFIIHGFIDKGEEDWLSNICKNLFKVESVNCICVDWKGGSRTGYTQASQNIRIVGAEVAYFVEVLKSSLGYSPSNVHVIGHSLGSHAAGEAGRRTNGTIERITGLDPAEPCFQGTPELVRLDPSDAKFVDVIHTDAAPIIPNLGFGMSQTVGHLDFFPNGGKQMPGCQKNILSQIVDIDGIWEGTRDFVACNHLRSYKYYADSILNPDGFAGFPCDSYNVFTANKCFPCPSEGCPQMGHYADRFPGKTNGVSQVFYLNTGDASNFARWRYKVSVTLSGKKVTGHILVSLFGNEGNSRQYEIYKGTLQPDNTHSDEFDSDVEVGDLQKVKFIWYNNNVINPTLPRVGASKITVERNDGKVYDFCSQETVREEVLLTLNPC
Description: (§1) Preparation of test samples: Structures #2-#19 were dissolved in 1 mL DMSO to obtain a 10 mM stock solution, and were vortexed to dissolution and stored at 4° C. The various concentration of working samples were prepared in 0.2 M phosphate buffer, pH-8.0. This sample was used as test sample for all further assays.
Lipase assay: Lipase assay was performed by method described by Winkler and Stuckmann, 1979, with modification. (Winkler, U. K. & Stuckmann, M. Glycogen, hyaluronate, and some other polysaccharides greatly enhance the formation of exolipase by Serratia marcescens. J. Bacteriol. 138: 663-670 (1979)) Assay was designed, using a 96-well format. The substrate used in this assay was p-nitro phenol palmitate (Sigma, Cat No-N-2752). 4.5 mg of p-nitro phenol palmitate was dissolved in 200 μl of N,N-dimethyl formamide (Sigma, Cat No, D-4551) and volume made up to 10 ml with 0.1 M pH 8.0 phosphate buffer. Pancreatic Lipase (Sigma, Cat No. L-3126) sample was prepared by dissolving the enzyme in 0.1M phosphate buffer at a concentration of 5 mg/ml. The reaction mixture consisted of 150 μl substrate solution; 40 μl phosphate buffer (pH 8.0, 0.2 M) and 10 μl lipase solution. The reaction mixture was incubated at 37° C. and optical density was measured at 405 nm after incubation. Enzyme activity was presented in the form of international unit (IU).
Lipase activity: One enzyme unit of lipase is defined as that quantity releasing 1 nm of free phenol from the substrate (p-nitro phenol palmitate) per min per ml under the standard assay condition (Winkler and Stuckmann, 1979; Yadav R P, Saxena R K, Gupta R. Davidson W S., Purification and characterization of a region-specific lipase from Aspergillus terreus. Biotechnol. Appl. Biochem. (1998) 28, (243-249)). It is derived from standard graph of p-nitro phenol (Sigma, 104-8).
(§2) Lipase inhibition assay: Enzyme inhibition assay was performed in a dose dependent manner. The concentration of the synthetic analogs checked were 100 μM & 200 μM. The assay was similar to assay described above except 40 μl of test sample was used instead of phosphate buffer in control. Optical density was measured at 0 hr and following incubation at 37° C.
Enzyme Inhibition: Enzyme inhibition was presented in the term of relative activity and percentage inhibition simply on the basis of change in international unit (IU).
as §1, with “Synthetic analogues” for “Structures #2-#19”, “ml” for “mL”, “solution. The samples” for “solution, and”, “O.2” for “0.2”
as §2, with “6.25 μM-200” for “100 μM & 200”, “C. The enzyme activity was measured in terms of international unit (IU).” for “C.”
Lipase activity: One enzyme unit of lipase is defined as that quantity releasing 1 nm of free phenol from the substrate (p-nitro phenol palmitate)/min per ml under standard assay conditions. It is derived from standard graph of p-nitro phenol (Sigma, 104-8)
Percent Inhibition: Enzyme inhibition was presented in the term of % inhibition simply on the basis of change in international unit (IU).
The value of IC50 was derived from linear regression. The value derived is based on interpolated data.

Row | SMILES | IC50 [1] [µM] | inhibition at 100 µM [1] [%] | inhibition at 200 µM [1] [%] | melting point [°C]
1 | CCCCCCCCCCCC1=C(OC(=O)c2ccccc2)C(=O)C=C(OC(=O)c2ccccc2)C1=O [Structure #15, 2,5-bis-(phenylcarbonyloxy)-3-undecyl-1,4-benzoquinone] | 55.6 | 100 | 100 | –
2 | CCCCCCCCCCCC1=C(OC(=O)c2ccccc2I)C(=O)C=C(OC(=O)c2ccccc2I)C1=O [Structure #19, 2,5-bis-(2-iodophenylcarbonyloxy)-3-undecyl-1,4-benzoquinone] | 129 | 29.2 | 100 | –
3 | CCCCCCCCCCCC1=C(OC(=O)c2cccc(Cl)c2)C(=O)C=C(OC(=O)c2cccc(Cl)c2)C1=O (as salt: Na) [Structure #7, 2,5-bis-(3-chlorophenylcarbonyloxy)-3-undecyl-1,4-benzoquinone] | – | – | – | 102.8 to 104.6
4 | CCCCCCCCCCCC1=C(OC(=O)c2cccc(OC)c2)C(=O)C=C(OC(=O)c2cccc(OC)c2)C1=O [Structure #17, 2,5-bis-(3-methoxyphenylcarbonyloxy)-3-undecyl-1,4-benzoquinone] | 81.9 | 78.3 | 96.5 | –
5 | CCCCCCCCCCCC1=C(OC(=O)c2cccc(Br)c2)C(=O)C=C(OC(=O)c2cccc(Br)c2)C1=O [Structure #6, 2,5-bis-(3-bromophenylcarbonyloxy)-3-undecyl-1,4-benzoquinone] | 13.5 | 100 | 100 | –
6 | CCCCCCCCCCCC1=C(OC(=O)c2cccc(C)c2)C(=O)C=C(OC(=O)c2cccc(C)c2)C1=O [Structure #13, 2,5-bis-(3-methylphenylcarbonyloxy)-3-undecyl-1,4-benzoquinone] | 44.7 | 100 | 100 | –
7 | CCCCCCCCCCCC1=C(OC(=O)c2cccc(OC)c2)C(=O)C=C(OC(=O)c2cccc(OC)c2)C1=O (as salt: Na) [Structure #17, 2,5-bis-(3-methoxyphenylcarbonyloxy)-3-undecyl-1,4-benzoquinone] | – | – | – | 77.1 to 78.6
8 | CCCCCCCCCCCC1=C(OC(=O)c2ccccc2[N+](=O)[O-])C(=O)C=C(OC(=O)c2ccccc2[N+](=O)[O-])C1=O [Structure #14, 2,5-bis-(2-nitrophenylcarbonyloxy)-3-undecyl-1,4-benzoquinone] | 45.3 | 65.9 | 61.3 | –
9 | CCCCCCCCCCCC1=C(OC(=O)c2ccc(Cl)cc2)C(=O)C=C(OC(=O)c2ccc(Cl)cc2)C1=O [Structure #9, 2,5-bis-(4-chlorophenylcarbonyloxy)-3-undecyl-1,4-benzoquinone] | 22.8 | 98.4 | 100 | –
10 | CCCCCCCCCCCC1=C(OC(=O)c2ccc(F)cc2)C(=O)C=C(OC(=O)c2ccc(F)cc2)C1=O [Structure #16, 2,5-bis-(4-fluorophenylcarbonyloxy)-3-undecyl-1,4-benzoquinone] | 72.8 | 89.5 | 100 | –
11 | CCCCCCCCCCCC1=C(OC(=O)c2ccccc2[N+](=O)[O-])C(=O)C=C(OC(=O)c2ccccc2[N+](=O)[O-])C1=O (as salt: Na) [Structure #14, 2,5-bis-(2-nitrophenylcarbonyloxy)-3-undecyl-1,4-benzoquinone] | – | – | – | 72.2 to 73.8
12 | CCCCCCCCCCCC1=C(OC(=O)c2ccc(OC)cc2)C(=O)C=C(OC(=O)c2ccc(OC)cc2)C1=O [Structure #18, 2,5-bis-(4-methoxyphenylcarbonyloxy)-3-undecyl-1,4-benzoquinone] | 94.2 | 55.6 | 94.1 | –
13 | CCCCCCCCCCCC1=C(OC(=O)c2ccccc2Cl)C(=O)C=C(OC(=O)c2ccccc2Cl)C1=O (as salt: Na) [Structure #8, 2,5-bis-(2-chlorophenylcarbonyloxy)-3-undecyl-1,4-benzoquinone] | – | – | – | 56.2 to 57.8
14 | CCCCCCCCCCCC1=C(OC(=O)c2ccc(C(C)(C)C)cc2)C(=O)C=C(OC(=O)c2ccc(C(C)(C)C)cc2)C1=O [Structure #3, 2,5-bis-(4-tert-butylphenylcarbonyloxy)-3-undecyl-1,4-benzoquinone] | < 6.25 | 99.5 | 99.2 | –
15 | CCCCCCCCCCCC1=C(OC(=O)c2ccccc2Br)C(=O)C=C(OC(=O)c2ccccc2Br)C1=O [Structure #5, 2,5-bis-(2-bromophenylcarbonyloxy)-3-undecyl-1,4-benzoquinone] | 11 | 100 | 100 | –
16 | CCCCCCCCCCCC1=C(OC(=O)c2ccccc2Cl)C(=O)C=C(OC(=O)c2ccccc2Cl)C1=O [Structure #8, 2,5-bis-(2-chlorophenylcarbonyloxy)-3-undecyl-1,4-benzoquinone] | 20.6 | 100 | 100 | –
17 | CCCCCCCCCCCC1=C(OC(=O)c2ccc(C)cc2)C(=O)C=C(OC(=O)c2ccc(C)cc2)C1=O [Structure #12, 2,5-bis-(4-methylphenylcarbonyloxy)-3-undecyl-1,4-benzoquinone] | 41.3 | 88.5 | 99.1 | –
18 | CCCCCCCCCCCC1=C(OC(=O)c2cccc(C)c2)C(=O)C=C(OC(=O)c2cccc(C)c2)C1=O (as salt: Na) [Structure #13, 2,5-bis-(3-methylphenylcarbonyloxy)-3-undecyl-1,4-benzoquinone] | – | – | – | 80.4 to 81.7
19 | CCCCCCCCCCCC1=C(OC(=O)c2ccc(C)cc2)C(=O)C=C(OC(=O)c2ccc(C)cc2)C1=O (as salt: Na) [Structure #12, 2,5-bis-(4-methylphenylcarbonyloxy)-3-undecyl-1,4-benzoquinone] | – | – | – | 94.8 to 96
20 | CCCCCCCCCCCC1=C(OC(=O)c2ccccc2I)C(=O)C=C(OC(=O)c2ccccc2I)C1=O (as salt: Na) [Structure #19, 2,5-bis-(2-iodophenylcarbonyloxy)-3-undecyl-1,4-benzoquinone] | – | – | – | 64.2 to 67.6
21 | CCCCCCCCCCCC1=C(OC(=O)c2ccccc2)C(=O)C=C(OC(=O)c2ccccc2)C1=O (as salt: Na) [Structure #15, 2,5-bis-(phenylcarbonyloxy)-3-undecyl-1,4-benzoquinone] | – | – | – | 98.2 to 99.6
22 | CCCCCCCCCCCC1=C(OC(=O)c2cccc(Cl)c2)C(=O)C=C(OC(=O)c2cccc(Cl)c2)C1=O [Structure #7, 2,5-bis-(3-chlorophenylcarbonyloxy)-3-undecyl-1,4-benzoquinone] | 16.7 | 100 | 100 | –
23 | CCCCCCCCCCCC1=C(OC(=O)c2ccc(Br)cc2)C(=O)C=C(OC(=O)c2ccc(Br)cc2)C1=O [Structure #10, 2,5-bis-(4-bromophenylcarbonyloxy)-3-undecyl-1,4-benzoquinone] | 23.7 | 87.5 | 97 | –
24 | CCCCCCCCCCCC1=C(O)C(=O)C=C(O)C1=O [Structure #20, 2,5-Dihydroxy-3-undecyl-p-benzoquinone, reference compound] | – | 67.9 | 69.5 | –
